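Briefly, cells in 96-well plates were exposed to five compound concentrations for 48 h, and endpoints were estimated by linear interpolation. Abbreviation: GI50, concentration required for 50% inhibition of growth.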 The source made the active and inactive calls. Rule as the data show it: active = GI50 up to about 1.1 µM and inactive = higher.
Experiments:
Assay in all cases: inhibition of tumour cell growth, NCI panel, 48 h
[1] = system: SK-MEL-2
[2] = system: UACC-62
[3] = system: K562
[4] = system: NCI/ADR-RES
[5] = system: SNB-19
[6] = system: OVCAR-4
[7] = system: MDA-N
[8] = system: SK-OV-3
[9] = system: SK-MEL-28
[10] = system: MOLT-4
[11] = system: KM12
[12] = system: HOP-92
[13] = system: COLO 205
[14] = system: HCT-15
[15] = system: MDA-MB-435
[16] = system: M14
[17] = system: UACC-257
[18] = system: SN12C
[19] = system: UO-31
[20] = system: 786-0

SMILES | GI50 [1] | GI50 [2] | GI50 [3] | GI50 [4] | GI50 [5] | GI50 [6] | GI50 [7] | GI50 [8] | GI50 [9] | GI50 [10] | GI50 [11] | GI50 [12] | GI50 [13] | GI50 [14] | GI50 [15] | GI50 [16] | GI50 [17] | GI50 [18] | GI50 [19] | GI50 [20]
NC1=NC(c2ccc(Cl)cc2)N(c2ccc(S(N)(=O)=O)cc2)C(N)=N1 (stereo not given) | > 100 µM (inactive) | > 100 µM (inactive) | > 100 µM (inactive) | > 100 µM (inactive) | > 100 µM (inactive) | > 100 µM (inactive) | > 100 µM (inactive) | > 100 µM (inactive) | > 100 µM (inactive) | > 100 µM (inactive) | > 100 µM (inactive) | > 100 µM (inactive) | > 100 µM (inactive) | > 100 µM | > 100 µM (inactive) | > 100 µM (inactive) | > 100 µM (inactive) | > 100 µM (inactive) | > 100 µM (inactive) | > 100 µM (inactive)
C(=N\c1cnc2ccccc2c1)/c1ccc2ccccc2n1 | > 100 µM (inactive) | > 100 µM (inactive) | 52 µM (inactive) | > 100 µM (inactive) | > 100 µM (inactive) | > 100 µM (inactive) | > 100 µM (inactive) | > 100 µM (inactive) | > 100 µM (inactive) | 50 µM (inactive) | > 100 µM (inactive) | > 100 µM (inactive) | > 100 µM (inactive) | 55.6 µM | > 100 µM (inactive) | > 100 µM (inactive) | > 100 µM (inactive) | > 100 µM (inactive) | > 100 µM (inactive) | > 100 µM (inactive)
Cc1nnc2n1N=C(c1cc(F)c(Cl)cc1Cl)/C(=C/c1ccc(Cl)cc1)S2 | 8.15 µM (inactive) | 15 µM (inactive) | 17.5 µM (inactive) | 11.8 µM (inactive) | 23.7 µM (inactive) | 13.7 µM (inactive) | 15.8 µM (inactive) | 43.4 µM (inactive) | 38.8 µM (inactive) | 9.91 µM (inactive) | 12.8 µM (inactive) | 19.6 µM (inactive) | 33.4 µM (inactive) | 13.8 µM | 13.6 µM (inactive) | 17.9 µM (inactive) | 17 µM (inactive) | 14.9 µM (inactive) | 11.3 µM (inactive) | 16.8 µM (inactive)
CC(C)(Cl)C(Cl)CC/C(CBr)=C(\Cl)CBr (stereo not given) | 1.67 µM (inactive) | 1.76 µM (inactive) | 0.586 µM (active) | 2.77 µM (inactive) | 11.1 µM (inactive) | 1.51 µM (inactive) | 1.81 µM (inactive) | 4.31 µM (inactive) | 2.03 µM (inactive) | 0.473 µM (active) | 2.08 µM (inactive) | 1.75 µM (inactive) | 2.62 µM (inactive) | 1.75 µM | 2.37 µM (inactive) | 1.6 µM (inactive) | 2.08 µM (inactive) | 2.45 µM (inactive) | 3.08 µM (inactive) | 1.36 µM (inactive)
C(=C\c1nccs1)/c1cccc(/C=C/c2nccs2)n1 | > 50 µM (inactive) | > 50 µM (inactive) | > 50 µM (inactive) | > 50 µM (inactive) | > 50 µM (inactive) | > 50 µM (inactive) | > 50 µM (inactive) | > 50 µM (inactive) | > 50 µM (inactive) | 38.4 µM (inactive) | > 50 µM (inactive) | > 50 µM (inactive) | > 50 µM (inactive) | > 50 µM | > 50 µM (inactive) | > 50 µM (inactive) | > 50 µM (inactive) | > 50 µM (inactive) | > 50 µM (inactive) | > 50 µM (inactive)
C/C(=N\NC(N)=S)c1ccc2c(c1)Sc1ccccc1O2 | 2.11 µM (inactive) | 2.42 µM (inactive) | 2.36 µM (inactive) | 2.55 µM (inactive) | 6.55 µM (inactive) | 2.47 µM (inactive) | 0.373 µM (active) | 4.11 µM (inactive) | 3.81 µM (inactive) | 2.54 µM (inactive) | 4.19 µM (inactive) | 3.17 µM (inactive) | 1.1 µM (active) | 0.593 µM | 0.29 µM (active) | 2.4 µM (inactive) | 6.14 µM (inactive) | 3.34 µM (inactive) | 2.88 µM (inactive) | 3.18 µM (inactive)
CC(C)Cc1ccc(C(C)/C=C2\CCC(CN3CCOCC3)C2=O)cc1 (stereo not given) | 16.6 µM (inactive) | 12.5 µM (inactive) | 1.92 µM (inactive) | 3.93 µM (inactive) | 8.51 µM (inactive) | 17.7 µM (inactive) | 12.1 µM (inactive) | 18.8 µM (inactive) | 9.12 µM (inactive) | 1.64 µM (inactive) | 5.47 µM (inactive) | 15.5 µM (inactive) | 9.44 µM (inactive) | 2.94 µM | 6.92 µM (inactive) | 5.02 µM (inactive) | 7.14 µM (inactive) | 9.27 µM (inactive) | 8.73 µM (inactive) | 1.69 µM (inactive)
Nc1c(C(=O)c2ccccc2)[nH]c(NCc2ccccc2)c1C(=S)Nc1ccccc1 | > 100 µM (inactive) | > 100 µM (inactive) | > 100 µM (inactive) | > 100 µM (inactive) | > 100 µM (inactive) | > 100 µM (inactive) | > 100 µM (inactive) | > 100 µM (inactive) | > 100 µM (inactive) | > 100 µM (inactive) | > 100 µM (inactive) | > 100 µM (inactive) | > 100 µM (inactive) | > 100 µM | > 100 µM (inactive) | > 100 µM (inactive) | > 100 µM (inactive) | > 100 µM (inactive) | > 100 µM (inactive) | > 100 µM (inactive)
O=C([O-])Cc1ccccc1.[Na+] [SODIUM PHENYLACETATE] | > 2000 µM (inactive) | 1370 µM (inactive) | 284 µM (inactive) | 540 µM (inactive) | > 2000 µM (inactive) | 255 µM (inactive) | 10.6 µM (inactive) | > 2000 µM (inactive) | 800 µM (inactive) | 289 µM (inactive) | 773 µM (inactive) | 359 µM (inactive) | 1340 µM (inactive) | 703 µM | 1000 µM (inactive) | > 2000 µM (inactive) | > 2000 µM (inactive) | 23.9 µM (inactive) | 929 µM (inactive) | 1070 µM (inactive)
